Data published in the supplement of paper PMC10307832.

Key:
Experiment in all cases: relative viability (nuclei count vs DMSO), 5 days (fraction); higher = more cells survive
[1] = compound: O=C(NC1CCNCC1)c1n[nH]cc1NC(=O)c1c(Cl)cccc1Cl [AT-7519] + CS(=O)(=O)CCNCc1ccc(-c2ccc3ncnc(Nc4ccc(OCc5cccc(F)c5)c(Cl)c4)c3c2)o1 [Lapatinib] (partner 2 µM)
Procedure, shortened: (§1)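 Medians of duplicate plates are given as relative viability. That measure is the nuclei count in treated wells divided by the count in vehicle wells. Counts were taken on 4× images of lung cancer cell lines in 1536-well plates, 5 days after pin-tool dosing the day after seeding with one drug alone or a fixed anchor-drug dose plus five library-drug doses (not always all listed) in √10 steps.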

[2] = compound: C1=CC2=C(C=C(C(=C2N=C1)O)N=NC3=CC4=C(C=C3)C=C(C=C4)S(=O)(=O)O)S(=O)(=O)O + CS(=O)(=O)N1CCN(Cc2cc3nc(-c4cccc5[nH]ncc45)nc(N4CCOCC4)c3s2)CC1 [Pictilisib] (partner 1 µM)
Procedure, shortened: as §1

[3] = compound: C1=CC2=C(C=C(C(=C2N=C1)O)N=NC3=CC4=C(C=C3)C=C(C=C4)S(=O)(=O)O)S(=O)(=O)O + CS(=O)(=O)CCNCc1ccc(-c2ccc3ncnc(Nc4ccc(OCc5cccc(F)c5)c(Cl)c4)c3c2)o1 [Lapatinib] (partner 2 µM)
Procedure, shortened: as §1

[4] = compound: O=C(NC1CCNCC1)c1n[nH]cc1NC(=O)c1c(Cl)cccc1Cl [AT-7519] + Cc1nc(NC(=O)N2CCC[C@H]2C(N)=O)sc1-c1ccnc(C(C)(C)C(F)(F)F)c1 [Alpelisib] (partner 2 µM)
Procedure, shortened: as §1

Cell Line	relative viability ([1]; first compound 0.01 µM)	relative viability ([1]; first compound 0.03162 µM)	relative viability ([1]; first compound 0.3162 µM)	relative viability ([1]; first compound 1 µM)	relative viability ([2]; first compound 0.08 µM)	relative viability ([2]; first compound 0.253 µM)	relative viability ([2]; first compound 0.8 µM)	relative viability ([2]; first compound 2.53 µM)	relative viability ([2]; first compound 8 µM)	relative viability ([3]; first compound 0.08 µM)	relative viability ([3]; first compound 0.253 µM)	relative viability ([3]; first compound 0.8 µM)	relative viability ([3]; first compound 2.53 µM)	relative viability ([3]; first compound 8 µM)	relative viability ([4]; first compound 0.01 µM)	relative viability ([4]; first compound 0.03162 µM)	relative viability ([4]; first compound 0.3162 µM)	relative viability ([4]; first compound 1 µM)
SK-MES-1	0.455	0.468	0.451	0.392	0.444	0.354	0.376	0.328	0.377	0.482	0.444	0.468	0.464	0.546	0.839	0.699	0.86	0.397
NCI-H2170	0.289	0.305	0.278	0.249	0.315	0.4	0.312	0.306	0.308	0.267	0.272	0.271	0.292	0.286	0.828	0.796	0.794	0.81
NCI-H2085	0.845	0.776	0.713	0.488	0.38	0.465	0.406	0.571	0.497	0.915	0.783	0.749	0.818	0.842	0.899	0.926	0.941	0.656
SW 1573	1.08	1.18	1.07	0.569	0.449	0.431	0.475	0.447	0.523	1.05	1	1.04	1.14	0.353	0.802	0.739	0.743	0.394
NCI-H727	0.641	0.82	0.486	0.235	0.591	0.311	0.217	0.358	0.482	1.09	0.873	0.768	0.978	0.701	0.649	0.486	0.546	0.226
LOU-NH91	0.786	0.736	0.795	0.673	0.57	0.523	0.539	0.486	0.524	0.868	0.79	0.755	0.781	0.781	0.768	0.703	0.729	0.579
NCI-H3122	1.02	0.986	1.08	0.701	0.629	0.552	0.555	0.616	0.638	0.99	0.982	1.04	0.947	1.01	0.827	0.699	0.813	0.263
NCI-H460	1.71	0.877	0.0532	0.013	0.356	0.366	0.336	0.344	0.104	1.53	1.01	1.05	1.13	0.965	0.667	0.526	0.322	0.0207
NCI-H650	0.923	0.841	0.781	0.75	0.907	0.859	0.909	0.92	0.833	0.91	0.786	0.838	0.86	0.525	1.09	1	1.09	1.08
NCI-H661	0.348	0.383	0.385	0.322	0.372	0.345	0.359	0.517	0.353	0.541	0.49	0.431	0.626	0.49	0.488	0.445	0.758	0.506
NCI-H1793	0.554	0.713	0.421	0.226	0.313	0.323		0.291	0.369	0.769	1		0.651	0.59	0.574	0.632	0.907	0.774
